Patent US10106501B2, “Nuclear receptor modulators” (AbbVie Inc., priority 2015, dated 2018)

Molecular target: T1, chimeric human RORγ-Gal4 receptor (Homo sapiens, UniProt P51449)
T1 sequence (P51449 269-508 limits assumed): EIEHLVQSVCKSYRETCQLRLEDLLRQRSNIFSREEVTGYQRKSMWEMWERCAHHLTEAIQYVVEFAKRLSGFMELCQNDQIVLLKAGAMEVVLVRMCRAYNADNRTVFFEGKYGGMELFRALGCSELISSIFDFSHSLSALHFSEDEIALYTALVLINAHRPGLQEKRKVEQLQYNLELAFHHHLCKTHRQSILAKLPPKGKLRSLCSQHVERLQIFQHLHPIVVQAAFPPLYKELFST
Assay: transient transactivation assay (RORγ-Gal4 luciferase reporter)
Type: cell-based
Details: not given

`Cc1cc(C#N)cc2c1cc(Cc1c(Cl)ccc(CN3CCOCC3=O)c1Cl)n2C` [Example AU, 2-(2,6-dichloro-3-((3-oxomorpholino)methyl)benzyl)-1,4-dimethyl-1H-indole-6-carbonitrile] showed an IC50 of 0.1 to 0.5 µM.

Same assay, conditions: Cos-7 cells transfected with RORγ-Gal4 and 5Gal4 pGL3 TK Luc reporter; overnight incubation; T0901317 at 10^-5 M as reference; read-out: IC50

`Cc1cc(C(F)(F)F)nc2c1cc(Cc1c(Cl)ncc(C(=O)N3CCOCC3)c1Cl)n2C` [Example GF, (4,6-dichloro-5-((1,4-dimethyl-6-(trifluoromethyl)-1H-pyrrolo[2,3-b]pyridin-2-yl)methyl)pyridin-3-yl)(morpholino)methanone] and `Cc1cc(C(F)(F)F)nc2c1cc(Cc1c(Cl)ccc(C(=O)N3CCOCC3)c1Cl)n2C` [CM, (2,4-dichloro-3-((1,4-dimethyl-6-(trifluoromethyl)-1H-pyrrolo[2,3-b]pyridin-2-yl)methyl)phenyl)(morpholino)methanone] cannot be ordered by IC50: < 0.1 µM for the first, < 0.1 µM for the second.

`Cc1cc(C(F)(F)F)cc2c1cc(Cc1c(Cl)ccc(C(=O)N3CCC(C(=O)O)C(C)C3)c1Cl)n2C` (stereo not shown) [Example B-1, 1-(2,4-dichloro-3-((1,4-dimethyl-6-(trifluoromethyl)-1H-indol-2-yl)methyl)benzoyl)-3-methylpiperidine-4-carboxylic acid] and `Cc1cc(OC(F)(F)F)cc2c1c(Cc1c(Cl)ccc(C(=O)N3CCC(C(=O)O)C(C)C3)c1Cl)cn2C` (stereo not shown) [DU1-2] cannot be ordered by IC50: < 0.1 µM for the first, < 0.1 µM for the second.

First: Cc1nn(Cc2c(Cl)ccc(C(=O)N3CCC(C4COC4)CC3)c2Cl)c2c(C)cc(C(F)(F)F)cc12 [DD-1, (2,4-dichloro-3-((3,7-dimethyl-5-(trifluoromethyl)-1H-indazol-1-yl)methyl)phenyl)(4-(oxetan-3-yl)piperidin-1-yl)methanone]
Second: Cc1cc(C#N)cn2c(C)c(Cc3c(Cl)ccc(C(=O)N4CCC(C5COC5)CC4)c3Cl)nc12 [CV-5]
The IC50 of the first is lower: < 0.1 µM for the first, 0.1 to 0.5 µM for the second.

First: Cc1cc(C(F)(F)F)cc2c1nc(Cc1c(Cl)ccc(C(=O)N3C[C@@H]4[C@H](C3)[C@H]4C(=O)O)c1Cl)n2C [Example BL, (1R,5S,6r)-3-(2,4-dichloro-3-((1,4-dimethyl-6-(trifluoromethyl)-1H-benzo[d]imidazol-2-yl)methyl)benzoyl)-3-azabicyclo[3.1.0]hexane-6-carboxylic acid]
Second: Cc1cc(C(F)(F)F)cc2c1c(Cc1c(Cl)ccc(C(=O)N3C[C@@H]4[C@H](C3)[C@H]4C(=O)O)c1Cl)cn2C [Example F1-1]
The IC50 of the first is higher: 1 to 10 µM for the first, < 0.1 µM for the second.

Compared with `Cc1ccc(C(=O)N2CCOCC2)c(C)c1C(O)c1cc2c(C)cc(C(F)(F)F)cc2n1C` (stereo not shown) [K, (3-((1,4-dimethyl-6-(trifluoromethyl)-1H-indol-2-yl)(hydroxy)methyl)-2,4-dimethylphenyl)(morpholino)methanone], `Cc1cc(C(F)(F)F)cc2c1cc(Cc1c(Cl)ccc(C(=O)N3CCN(C4COC4)CC3)c1Cl)n2C` [Example A1, (2,4-dichloro-3-((1,4-dimethyl-6-(trifluoromethyl)-1H-indol-2-yl)methyl)phenyl)(4-(oxetan-3-yl)piperazin-1-yl)methanone] is lower in IC50: 0.1 to 0.5 µM for the first, < 0.1 µM for the second. The second is the more potent here.

First: Cc1cc(Br)cc2c1cc(Cc1c(Cl)ccc(C(=O)N3CCOCC3)c1Cl)n2C [Example AX, (3-((6-bromo-1,4-dimethyl-1H-indol-2-yl)methyl)-2,4-dichlorophenyl)(morpholino)methanone]
Second: Cc1cc(C#N)cc2c1cc(C(=O)c1c(Cl)ccc(C(=O)N3CCOCC3)c1Cl)n2C [Example AD, 2-(2,6-dichloro-3-(morpholine-4-carbonyl)benzoyl)-1,4-dimethyl-1H-indole-6-carbonitrile]
The IC50 of the first is lower: < 0.1 µM for the first, 0.1 to 0.5 µM for the second.

First: Cc1cc(OC(F)F)cc2c1cc(Cc1c(Cl)ccc(C(=O)N3CCC(CC(=O)O)CC3)c1Cl)n2C [Example FF, 2-(1-(2,4-dichloro-3-((6-(difluoromethoxy)-1,4-dimethyl-1H-indol-2-yl)methyl)benzoyl)piperidin-4-yl)acetic acid]
Second: Cc1cc(C#N)cc2c1cc(Cc1c(Cl)cnc(C(=O)N3CCC(CC(=O)O)CC3)c1Cl)n2C [Example BG, 2-[1-[3,5-dichloro-4-[(6-cyano-1,4-dimethyl-indol-2-yl)methyl]pyridine-2-carbonyl]-4-piperidyl]acetic acid]
The IC50 of the first is lower: < 0.1 µM for the first, 0.5 to 1 µM for the second. The first is the more potent here.

`Cc1cc(C(F)(F)F)cc2c1nc(Cc1c(Cl)ccc(C(=O)N3CCC(C(C)(C)O)CC3)c1Cl)n2C` [BJ-9] and `COC1CCC(NC(=O)c2ccc(Cl)c(Cc3nc4c(C)cc(C(F)(F)F)cc4n3C)c2Cl)CC1` (stereo not shown) [BJ-22] fall in the same range of IC50: 0.1 to 0.5 µM for the first, 0.1 to 0.5 µM for the second.

First: Cc1cc(C(F)(F)F)cc2c1cc(Cc1c(Cl)ncc(C(=O)N3CCC(O)(CCO)CC3)c1Cl)n2C [BH-2]
Second: Cc1cc(C(F)(F)F)cc2ccn(C(=O)c3c(Cl)ccc(C(=O)N4CCC(CC(=O)O)CC4)c3Cl)c12 [ES, 2-(1-(2,4-dichloro-3-(7-methyl-5-(trifluoromethyl)-1H-indole-1-carbonyl)benzoyl)piperidin-4-yl)acetic acid]
The IC50 of the first is higher: 0.1 to 0.5 µM for the first, < 0.1 µM for the second.
